Measured values published in patent US20260193271A1, “PAN-KRAS INHIBITOR COMPOUND” (ADLAI NORTYE BIOPHARMA CO., LTD., priority 2022, published 2026).

Experiments:
SW480 (G12V) = test: In vitro cell proliferation inhibition test (CellTiter-Glo), SW480; assay type: cell-based; conditions: Homo sapiens, SW480 colon cell line, KRAS (p.G12V), 72 h co-incubation
Excerpt: (§1) Test Example 1: In Vitro Cell Proliferation Inhibition Test
(§2) Due to the diversity of RAS mutations and in order to evaluate the activity of compounds in different RAS mutation cell lines, we selected KRAS^WT, KRAS^G12C, KRAS^G12D, KRAS^G12V and BRAF mutation cell lines (see the table below) for in vitro activity evaluation and screening of compounds.
(§3) Protocol: CellTiter-Glo® Cell Luminescent Viability Assay (Promega)
(§4) According to the doubling time of different cell lines, different numbers of cells (1000-5000 cells/well) were seeded in 96-well plates containing 180 μl of corresponding culture medium and cultured overnight in a cell culture incubator at 37° C. with 5% CO2. On the second day, the test compound was pre-diluted 3-fold with culture medium, with the highest concentration being 100 μM, for a total of 10 concentration gradients; then 20 μl of culture medium containing different concentrations of the compound was added to the cells in the 96-well plate to ensure that the final concentration of the compound was up to 10 μM, with 10 concentration gradients of 3-fold dilution. After the cells and compounds were co-incubated for 72 h, the 96-well plate was removed from the incubator and equilibrated at room temperature for 30 min. Then, 25 μl of CellTiter-Glo® Reagent was added to each well and mixed thoroughly. The mixture was incubated at room temperature for 10 min, and then 100 μl of the sample was transferred to a white 96-well plate (OptiPlate™-96, PerkinElmer). The […] signal value was read using a multi-function microplate reader (SpectraMax® i3x, Molecular devices). The signal values were then standardized, and the curve was fitted using a four-parameter regression equation to calculate the half maximal inhibitory concentration (IC50) of the compound on the cell line.

AsPC-1 (G12D) = test: In vitro cell proliferation inhibition test (CellTiter-Glo), AsPC-1; assay type: cell-based; conditions: Homo sapiens, ASPC1, AsPC-1 pancreas cell line, KRAS (p.G12D), 72 h co-incubation
Excerpt: as §1, §2, §3, §4

Row | SMILES | IC50 (SW480 (G12V)) | IC50 (AsPC-1 (G12D))
1 | CCn1c(-c2cc(-c3ccc(CN4CCN(C)CC4)cc3)cnc2[C@H](C)OC)c2c3cc(ccc31)-c1csc(n1)C[C@H](NC(=O)[C@H]1C[C@@H]1C)C(=O)N1CCC[C@H](N1)C(=O)OCC(C)(C)C2 (atropisomer, axis not shown) [Compound 8, (1S,2S)-N-((6^3S,4S,Z)-1^1-ethyl-1^2-(2-((S)-1-methoxyethyl)-5-(4-((4-methylpiperazin-1-yl)methyl)phenyl)pyridin-3-yl)-10,10-dimethyl-5,7-dioxo-6^1,6^2,6^3,6^4,6^5,6^6-hexahydro-1^1H-8-oxa-2(4,2)-thiazola-1(5,3)-indola-6(1,3)-pyridazinacycloundecaphane-4-yl)-2-methylcyclopropane-1-carboxamide] | 1.4 nM | 0.7 nM
2 | CCn1c(-c2cc(-c3cccc(CN4CCOCC4)c3)cnc2[C@H](C)OC)c2c3cc(ccc31)-c1csc(n1)C[C@H](NC(=O)[C@H]1C[C@@H]1C)C(=O)N1CCC[C@H](N1)C(=O)OCC(C)(C)C2 (atropisomer, axis not shown) [Compound 9, (1S,2S)-N-((6^3S,4S,Z)-1^1-ethyl-1^2-(2-((S)-1-methoxyethyl)-5-(3-(morpholinomethyl)phenyl)pyridin-3-yl)-10,10-dimethyl-5,7-dioxo-6^1,6^2,6^3,6^4,6^5,6^6-hexahydro-1^1H-8-oxa-2(4,2)-thiazola-1(5,3)-indola-6(1,3)-pyridazinacycloundecaphane-4-yl)-2-methylcyclopropane-1-carboxamide] | 18 nM | 3.5 nM
3 | CCn1c(-c2cc(-c3cnn(CCN4CCOCC4)c3)cnc2[C@H](C)OC)c2c3cc(ccc31)-c1csc(n1)C[C@H](NC(=O)[C@H]1C[C@@H]1C)C(=O)N1CCC[C@H](N1)C(=O)OCC(C)(C)C2 (atropisomer, axis not shown) [Compound 15, (1S,2S)-N-((6^3S,4S,Z)-1^1-ethyl-1^2-(2-((S)-1-methoxyethyl)-5-(1-(2-morpholinoethyl)-1H-pyrazol-4-yl)pyridin-3-yl)-10,10-dimethyl-5,7-dioxo-6^1,6^2,6^3,6^4,6^5,6^6-hexahydro-1^1H-8-oxa-2(4,2)-thiazola-1(5,3)-indola-6(1,3)-pyridazinacycloundecaphane-4-yl)-2-methylcyclopropane-1-carboxamide] | 6 nM | 3 nM
4 | CCn1c(-c2cc(-c3cnn([C@@H]4CCN(C)C4)c3)cnc2[C@H](C)OC)c2c3cc(ccc31)-c1csc(n1)C[C@H](NC(=O)[C@H]1C[C@@H]1C)C(=O)N1CCC[C@H](N1)C(=O)OCC(C)(C)C2 (atropisomer, axis not shown) [Compound 16, (1S,2S)-N-((6^3S,4S,Z)-1^1-ethyl-1^2-(2-((S)-1-methoxyethyl)-5-(1-((R)-1-methylpyrrolidin-3-yl)-1H-pyrazol-4-yl)pyridin-3-yl)-10,10-dimethyl-5,7-dioxo-6^1,6^2,6^3,6^4,6^5,6^6-hexahydro-1^1H-8-oxa-2(4,2)-thiazola-1(5,3)-indola-6(1,3)-pyridazinacycloundecaphane-4-yl)-2-methylcyclopropane-1-carboxamide] | 7.9 nM | 1.6 nM
5 | CCn1c(-c2cc(-c3cnn(C4CN(C)C4)c3)cnc2[C@H](C)OC)c2c3cc(ccc31)-c1csc(n1)C[C@H](NC(=O)[C@H]1[C@H](C)[C@@H]1C)C(=O)N1CCC[C@H](N1)C(=O)OCC(C)(C)C2 (atropisomer, axis not shown) [Compound 17, (1r,2R,3S)-N-((6^3S,4S,Z)-1^1-ethyl-1^2-(2-((S)-1-methoxyethyl)-5-(1-(1-methylazetidin-3-yl)-1H-pyrazol-4-yl)pyridin-3-yl)-10,10-dimethyl-5,7-dioxo-6^1,6^2,6^3,6^4,6^5,6^6-hexahydro-1^1H-8-oxa-2(4,2)-thiazola-1(5,3)-indola-6(1,3)-pyridazinacycloundecaphane-4-yl)-2,3-dimethylcyclopropane-1-carboxamide] | 2.5 nM | 0.31 nM
6 | CCn1c(-c2cc(-c3cnn(C4CCN(C)CC4)c3)cnc2[C@H](C)OC)c2c3cc(ccc31)-c1csc(n1)C[C@H](NC(=O)[C@H]1[C@H](C)[C@@H]1C)C(=O)N1CCC[C@H](N1)C(=O)OCC(C)(C)C2 (atropisomer, axis not shown) [Compound 18, (1r,2R,3S)-N-((6^3S,4S,Z)-1^1-ethyl-1^2-(2-((S)-1-methoxyethyl)-5-(1-(1-methylpiperidin-4-yl)-1H-pyrazol-4-yl)pyridin-3-yl)-10,10-dimethyl-5,7-dioxo-6^1,6^2,6^3,6^4,6^5,6^6-hexahydro-1^1H-8-oxa-2(4,2)-thiazola-1(5,3)-indola-6(1,3)-pyridazinacycloundecaphane-4-yl)-2,3-dimethylcyclopropane-1-carboxamide] | 1.4 nM | 0.45 nM

The remaining compounds from weak to strong by IC50 (SW480 (G12V)), led by results:

Row | IC50 (SW480 (G12V)) | IC50 (AsPC-1 (G12D)) | SMILES
7 | 159 nM | 128 nM | CCn1c(-c2cc(-c3ccc(CN4CCC(F)(F)CC4)cc3)cnc2[C@H](C)OC)c2c3cc(ccc31)-c1csc(n1)C[C@H](NC(=O)[C@H]1C[C@@H]1C)C(=O)N1CCC[C@H](N1)C(=O)OCC(C)(C)C2 (atropisomer, axis not shown) [Compound 7, (1S,2S)-N-((6^3S,4S,Z)-1^2-(5-(4-((4,4-difluoropiperidin-1-yl)methyl)phenyl)-2-((S)-1-methoxyethyl)pyridin-3-yl)-1^1-ethyl-10,10-dimethyl-5,7-dioxo-6^1,6^2,6^3,6^4,6^5,6^6-hexahydro-1^1H-8-oxa-2(4,2)-thiazola-1(5,3)-indola-6(1,3)-pyridazinacycloundecaphane-4-yl)-2-methylcyclopropane-1-carboxamide]
8 | 6.6 nM | 16 nM | CCn1c(-c2cc(-c3ccc(CN4CCOCC4)cn3)cnc2[C@H](C)OC)c2c3cc(ccc31)-c1csc(n1)C[C@H](NC(=O)[C@H]1C[C@@H]1C)C(=O)N1CCC[C@H](N1)C(=O)OCC(C)(C)C2 (atropisomer, axis not shown) [Compound 12, (1S,2S)-N-((6^3S,4S,Z)-1^1-ethyl-1^2-(6′-((S)-1-methoxyethyl)-5-(morpholinomethyl)-[2,3′-bipyridin]-5′-yl)-10,10-dimethyl-5,7-dioxo-6^1,6^2,6^3,6^4,6^5,6^6-hexahydro-1^1H-8-oxa-2(4,2)-thiazola-1(5,3)-indola-6(1,3)-pyridazinacycloundecaphane-4-yl)-2-methylcyclopropane-1-carboxamide]
9 | 4.5 nM | 0.57 nM | CCn1c(-c2cc(-c3cnn(CCN4CCN(C)CC4)c3)cnc2[C@H](C)OC)c2c3cc(ccc31)-c1csc(n1)C[C@H](NC(=O)[C@H]1[C@H](C)[C@@H]1C)C(=O)N1CCC[C@H](N1)C(=O)OCC(C)(C)C2 (atropisomer, axis not shown) [Compound 19, (1r,2R,3S)-N-((6^3S,4S,Z)-1^1-ethyl-1^2-(2-((S)-1-methoxyethyl)-5-(1-(2-(4-methylpiperazin-1-yl)ethyl)-1H-pyrazol-4-yl)pyridin-3-yl)-10,10-dimethyl-5,7-dioxo-6^1,6^2,6^3,6^4,6^5,6^6-hexahydro-1^1H-8-oxa-2(4,2)-thiazola-1(5,3)-indola-6(1,3)-pyridazinacycloundecaphane-4-yl)-2,3-dimethylcyclopropane-1-carboxamide]
10 | 3.2 nM | 2.1 nM | CCn1c(-c2cc(-c3cc(CN4CCOCC4)ccn3)cnc2[C@H](C)OC)c2c3cc(ccc31)-c1csc(n1)C[C@H](NC(=O)[C@H]1C[C@@H]1C)C(=O)N1CCC[C@H](N1)C(=O)OCC(C)(C)C2 (atropisomer, axis not shown) [Compound 11, (1S,2S)-N-((6^3S,4S,Z)-1^1-ethyl-1^2-(6′-((S)-1-methoxyethyl)-4-(morpholinomethyl)-[2,3′-bipyridin]-5′-yl)-10,10-dimethyl-5,7-dioxo-6^1,6^2,6^3,6^4,6^5,6^6-hexahydro-1^1H-8-oxa-2(4,2)-thiazola-1(5,3)-indola-6(1,3)-pyridazinacycloundecaphane-4-yl)-2-methylcyclopropane-1-carboxamide]
11 | 0.5 nM | 18 nM | CCn1c(-c2cc(-c3ccc4c(c3)CN(C)CC4)cnc2[C@H](C)OC)c2c3cc(ccc31)-c1csc(n1)C[C@H](NC(=O)[C@H]1C[C@@H]1C)C(=O)N1CCC[C@H](N1)C(=O)OCC(C)(C)C2 (atropisomer, axis not shown) [Compound 10, (1S,2S)-N-((6^3S,4S,Z)-1^1-ethyl-1^2-(2-((S)-1-methoxyethyl)-5-(2-methyl-1,2,3,4-tetrahydroisoquinolin-7-yl)pyridin-3-yl)-10,10-dimethyl-5,7-dioxo-6^1,6^2,6^3,6^4,6^5,6^6-hexahydro-1^1H-8-oxa-2(4,2)-thiazola-1(5,3)-indola-6(1,3)-pyridazinacycloundecaphane-4-yl)-2-methylcyclopropane-1-carboxamide]
